{
  "source": "paper PMC8878317",
  "about": "“Chemogenomics identifies acetyl-coenzyme A synthetase as a target for malaria treatment and prevention” (Cell Chemical Biology, 2022)",
  "system": "P. falciparum 3D7 parasites",
  "assay": "Metabolomic profiling of compound-treated parasites (LC/MS);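 for Metabolite data: 3-Phosphoglycerate: Log2 fold change in abundance versus untreated parasite controls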;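 for Metabolite data: Myo-Inositol: Log2 fold change in abundance versus untreated parasite controls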;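 for Metabolite data: N-Carbamoyl-L-Aspartate: Log2 fold change in abundance versus untreated parasite controls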;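 for Metabolite data: Nicotinate: Log2 fold change in abundance versus untreated parasite controls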",
  "type": "cell-based",
  "parameters": "Metabolite data: dTMP / Metabolite data: GMP / Metabolite data: S-Adenosyl-L-Homocysteine / Metabolite data: 1_3-Bisphosphoglyceric acid: scale not given here",
  "summary_of_the_method": "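Magnetically purified trophozoites (1×10^8 parasites/mL) recovered 1 h in RPMI 1640, incubated a further 2.5 h, quenched in 90% methanol with labeled aspartate. Extracts analysed by reverse-phase C18 LC with negative-mode Orbitrap MS; peak areas normalized to internal standards, blank-subtracted and averaged by condition.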",
  "data": [
    {"smiles": "N#Cc1cc(NC(=O)[C@H]2c3ccccc3C(=O)N(CC(F)(F)F)[C@@H]2c2cccnc2)ccc1F", "note": "[SJ733]", "values": [
      {"measurement": "Metabolite data: 1_3-Bisphosphoglyceric acid", "value": 0},
      {"measurement": "Metabolite data: 2_3-Diphosphoglyceric acid", "value": -1.405},
      {"measurement": "Metabolite data: 3-Phosphoglycerate", "value": 0.1564},
      {"measurement": "Metabolite data: 4-Aminobutyrate", "value": -0.6232},
      {"measurement": "Metabolite data: 4-Phosphopantothenate", "value": -0.06384},
      {"measurement": "Metabolite data: 4-phosphopantetheine", "value": 0},
      {"measurement": "Metabolite data: 5-aminopentanoic acid", "value": 0},
      {"measurement": "Metabolite data: 5-phosphoribosyl-1-pyrophosphate", "value": 0},
      {"measurement": "Metabolite data: 6-Phospho-D-Gluconate", "value": -0.1307},
      {"measurement": "Metabolite data: ADP-D-Glucose", "value": 0.2839},
      {"measurement": "Metabolite data: Acetyl-CoA", "value": -0.6106},
      {"measurement": "Metabolite data: Acetyllysine", "value": -2.328},
      {"measurement": "Metabolite data: Aconitate", "value": 1.12},
      {"measurement": "Metabolite data: CDP", "value": 0.04523},
      {"measurement": "Metabolite data: CDP-Ethanolamine", "value": -0.09201},
      {"measurement": "Metabolite data: CDP-choline", "value": 0},
      {"measurement": "Metabolite data: CMP", "value": 1.401},
      {"measurement": "Metabolite data: CTP", "value": -0.9536},
      {"measurement": "Metabolite data: Citrate/Isocitrate", "value": 0.1284},
      {"measurement": "Metabolite data: Cyclic-AMP", "value": -1.252},
      {"measurement": "Metabolite data: Dihydroorotate", "value": -2.603},
      {"measurement": "Metabolite data: FAD", "value": -1.458},
      {"measurement": "Metabolite data: FMN", "value": -1.104},
      {"measurement": "Metabolite data: Fructose-1,6-Bisphosphate", "value": -0.7765},
      {"measurement": "Metabolite data: Fumarate", "value": 0.221},
      {"measurement": "Metabolite data: GDP", "value": -2.218},
      {"measurement": "Metabolite data: GMP", "value": -2.3136},
      {"measurement": "Metabolite data: GTP", "value": -1.102},
      {"measurement": "Metabolite data: Glucose-1/6-Phosphate", "value": -0.8546},
      {"measurement": "Metabolite data: Glutathione Disulfide", "value": -0.003594},
      {"measurement": "Metabolite data: Hexose", "value": 0},
      {"measurement": "Metabolite data: Hydroxyisocaproic acid", "value": 0},
      {"measurement": "Metabolite data: Indole", "value": 0.01538},
      {"measurement": "Metabolite data: Ketoleucine", "value": 0},
      {"measurement": "Metabolite data: L-arginino-succinate", "value": 0},
      {"measurement": "Metabolite data: Lactate", "value": -1.557},
      {"measurement": "Metabolite data: Malate", "value": 0.2276},
      {"measurement": "Metabolite data: Myo-Inositol", "value": -4.078},
      {"measurement": "Metabolite data: N-Acetyl-Glutamate", "value": -0.1913},
      {"measurement": "Metabolite data: N-Acetyl-L-Alanine", "value": -1.649},
      {"measurement": "Metabolite data: N-Acetyl-L-Ornithine", "value": -1.387},
      {"measurement": "Metabolite data: N-Carbamoyl-L-Aspartate", "value": -4.081},
      {"measurement": "Metabolite data: NAD+", "value": -0.3968},
      {"measurement": "Metabolite data: NADH", "value": 0.5171},
      {"measurement": "Metabolite data: NADP+", "value": -0.1788},
      {"measurement": "Metabolite data: NADPH", "value": 3.012},
      {"measurement": "Metabolite data: Nicotinate", "value": 0.6001},
      {"measurement": "Metabolite data: Octulose 8/1-Phosphate", "value": -0.3837},
      {"measurement": "Metabolite data: Orotate", "value": 0.7127},
      {"measurement": "Metabolite data: PD", "value": -1.25},
      {"measurement": "Metabolite data: PE", "value": -3.092},
      {"measurement": "Metabolite data: PEEK", "value": -1.29},
      {"measurement": "Metabolite data: Phenol Red", "value": 0},
      {"measurement": "Metabolite data: Pyroglutamic acid", "value": -0.07146},
      {"measurement": "Metabolite data: S-Adenosyl-L-Homocysteine", "value": -0.5514},
      {"measurement": "Metabolite data: S-methyl-5'-thioadenosine", "value": -0.2796},
      {"measurement": "Metabolite data: SD", "value": -3.659},
      {"measurement": "Metabolite data: Sedoheptulose Bisphosphate", "value": -0.9288},
      {"measurement": "Metabolite data: UDP", "value": -0.7526},
      {"measurement": "Metabolite data: UDP-D-Glucose", "value": -0.1564},
      {"measurement": "Metabolite data: UDP-D-Glucuronate", "value": -0.198},
      {"measurement": "Metabolite data: UDP-N-Acetyl-Glucosamine", "value": 0.08301},
      {"measurement": "Metabolite data: UMP", "value": -0.4316},
      {"measurement": "Metabolite data: UTP", "value": -1.732},
      {"measurement": "Metabolite data: a-ketoglutarate", "value": 0.4286},
      {"measurement": "Metabolite data: acetyl-aspartate", "value": 0},
      {"measurement": "Metabolite data: arginine", "value": 0},
      {"measurement": "Metabolite data: asparagine", "value": 0},
      {"measurement": "Metabolite data: aspartate", "value": 0},
      {"measurement": "Metabolite data: biotin", "value": 0},
      {"measurement": "Metabolite data: chlorpropamide", "value": 0},
      {"measurement": "Metabolite data: coenzyme A", "value": 0},
      {"measurement": "Metabolite data: dAMP", "value": 2.428},
      {"measurement": "Metabolite data: dATP", "value": -0.7133},
      {"measurement": "Metabolite data: dCDP", "value": 1.868},
      {"measurement": "Metabolite data: dCMP", "value": 1.752},
      {"measurement": "Metabolite data: dCTP", "value": 0.5805},
      {"measurement": "Metabolite data: dGDP/ADP", "value": -2.35},
      {"measurement": "Metabolite data: dGMP/AMP", "value": -1.067},
      {"measurement": "Metabolite data: dGTP/ATP", "value": 0},
      {"measurement": "Metabolite data: dTDP", "value": 2.593},
      {"measurement": "Metabolite data: dTMP", "value": 4.089},
      {"measurement": "Metabolite data: dTTP", "value": 1.546},
      {"measurement": "Metabolite data: folate", "value": 0},
      {"measurement": "Metabolite data: glucono-lactone", "value": 0},
      {"measurement": "Metabolite data: glutamate", "value": 0},
      {"measurement": "Metabolite data: glutamine", "value": 0},
      {"measurement": "Metabolite data: glutathione", "value": 0},
      {"measurement": "Metabolite data: histidine", "value": 0},
      {"measurement": "Metabolite data: hydroxyproline/Aminolevulinate", "value": 0},
      {"measurement": "Metabolite data: isoleucine", "value": 0},
      {"measurement": "Metabolite data: leucine", "value": 0},
      {"measurement": "Metabolite data: maleic acid", "value": 0},
      {"measurement": "Metabolite data: methionine", "value": 0},
      {"measurement": "Metabolite data: nicotinamide mononucleotide", "value": 0},
      {"measurement": "Metabolite data: orotidine-5'-phosphate", "value": 0}
    ]}
  ]
}
